In patent US8536139B2, “Compositions comprising lipoteichoic acid for use in treating pleural effusion or pneumothorax” (ISIS Innovation Limited, priority 2007, dated 2013):
Values joined by “and” are separate entries in the source; they are usually repeats but may differ in a detail not shown here. Equal entries are not always repeated.

Experiments:
Format in all cases: in vivo, human
[1] = system: malignant pleural effusion; experiment: Long-term pleural fluid control (pleurodesis success, need for late therapeutic drainage)
Procedure: Over the next 7 days (days 7-14), daily pleural fluid volume drainage and pleural fluid cytology for malignant cells was performed unless pleural fluid flow ceased. On day 14, the intra-pleural catheter was flushed and closed (but left in situ) and not used again for the duration of the study unless recurrent pleural fluid caused breathlessness requiring treatment by fluid drainage.
(§1) Patient symptoms, performance status, radiographic pleural fluid recurrence (chest radiograph), adverse events and the clinical need for further pleural fluid drainage was assessed on days 22, 43, 64, 85. Where further fluid drainage was required, the time from the administration of LTA-T to first drainage was recorded. Those with recurrent pleural fluid were offered sterile talc pleurodesis (as standard care). All patients were followed up to death.
Long-term pleural fluid control was assessed by noting which patients required late therapeutic (>500 mls) pleural fluid drainage from their indwelling catheter in association with symptoms (excluding the subject not capable of achieving pleurodesis due to trapped lung). […] Between day 14 (when the indwelling catheter was first locked closed) and 1 month, 3 further patients received one therapeutic fluid drainage (pleurodesis success from day 14 9/12 (75%)). In those patients receiving a dose >750 mcg of intrapleural LTA-T, 6/7 required no therapeutic drainage at 1 month (86% pleurodesis success rate).

[2] = system: adults with histocytologically proven malignant pleural effusion; experiment: Phase I/IIa trial of intrapleural LTA-T: dose escalation and toxicity
Description: The study was a phase I/IIa toxicity/non-randomised “proof of concept” efficacy trial. The protocol included administration of an intrapleural saline control followed by seven days pleural fluid production measurement prior to the administration of LTA-T to allow the assessment of any side-effects from LTA-T administration, and both acute pleural fluid production changes and the frequency of long-term pleurodesis efficacy after intrapleural LTA-T (see FIG. 1).
The subjects were adults (aged≧18) with histocytologically proven malignant pleural effusion requiring symptomatic treatment.
(§2) After informed consent, an indwelling pleural catheter (PleurX, Denver, Colo.) was placed in the pleural effusion and the pleural space fully drained. Markers of toxicity (clinical symptoms, blood parameters, performance status) were recorded daily on the first 14 days of the study and at intervals thereafter (FIG. 1).
After initial complete fluid drainage, 30 mls intra-pleural saline (saline control) was administered (day 1). The daily pleural fluid drainage was then recorded for seven days to quantify the rate of production of pleural fluid. On day seven, subjects received a single intra-pleural injection of LTA-T, according to the dosing schedule (table 1). The starting dose was 250 mcg. Patients remained in hospital for one night following LTA-T administration in a respiratory unit equipped for the care of acute respiratory failure to permit immediate adverse event monitoring.
as §1

[3] = system: adults with histocytologically proven malignant pleural effusion; experiment: Alveolar to arterial gradient in the partial pressure of oxygen (arterial blood gases breathing air)
Description: Arterial blood gases breathing air were taken on days 1 and 3 of the first week (pre and post control saline), and on days 7 and 9 (pre and post LTA-T) to identify any impaired gas exchange (which is a problem with talc pleurodesis). The efficiency of lung oxygen exchange was quantified from the change in the alveolar to arterial gradient for the partial pressure of oxygen calculated from these blood gas samples, using standard methods.
(§3) Changes in continuous variables were compared to baseline using a paired t-test (SPSS version 12.0).

[4] = system: adults with histocytologically proven malignant pleural effusion; experiment: Peripheral blood white cell count change 24 hours after intrapleural administration; details: 7 subjects receiving >750 mcg; p=0.016, paired t-test
Procedure: FIG. 3 illustrates the change in peripheral white cell count 24 hours after administration of intrapleural saline control or LTA-T, in all patients (FIG. 3a) and patients receiving 750 mcg LTA-T or more (FIG. 3b). Individual results are shown and mean and SD data for each group.
as §2, §3

lipoteichoic acid T [LTA-T]
Pleurodesis success from day 14 ([1]; 9/12, day 14 to 1 month, where pleurodesis technically achievable): 75%
Patients not requiring any further therapeutic pleural drainage beyond 1 month from trial entry ([1]; 12/13 patients, trapped lung subject excluded): 92%
Pleurodesis outcome ([1]; dose of 750 mcg to 1000 mcg): effective pleurodesis
Pleurodesis success rate (no therapeutic drainage at 1 month) ([1]; patients receiving >750 mcg intrapleural, 6/7): 86%
Toxicity at the therapeutic dose ([2]; 750-1500 mcg intrapleural): mild with no consistent side effect profile
Pain ([2]; dose of 750 mcg to 1000 mcg): almost no pain
Side effects ([2]; individual patients, single intrapleural dose 250 mcg): mild fever and Nil and Mild chest pain 2 hours post administration
Side effects ([2]; individual patients, single intrapleural dose 375 mcg): Nil (2×) and Mild headache and light headed 4 hours
Side effects ([2]; individual patients, single intrapleural dose 750 mcg): Nil and Mild back pain on inspiration after LTA-T, and Nausea, vomiting and pyrexia for 3 days
Side effects ([2]; individual patients, single intrapleural dose 1500 mcg): Nil
Raised inflammatory markers (CRP) ([2]; patient 10, 750 mcg, post LTA-T administration): inflammatory markers (CRP > 285).
Side effects ([2]; patient 14, single intrapleural dose 3000 mcg): systemic inflammatory reaction
Blood parameter, performance status or respiratory status toxicities ([2]; whole trial): No blood parameter, performance status or respiratory status toxicities were seen
Alveolar to arterial gradient for the partial pressure of oxygen, post LTA-T, mean (SD) ([3]; day 9, mean baseline (SD) 4.24 (2.92) kPa): 4.88 (1.80) kPa
Blood oxygen levels ([3]; dose of 750 mcg to 1000 mcg): no evidence of depressed blood oxygen levels
Change in the alveolar to arterial gradient versus saline control ([3]; following LTA-T compared with saline control): similar
Difference in WCC change, LTA-T vs saline [4]: 4.70 (3.77)
